Experimental data published in publication PMC9762789, “Chromone-based monoamine oxidase B inhibitor with potential iron-chelating activity for the treatment of Alzheimer’s disease” (Journal of Enzyme Inhibition and Medicinal Chemistry, 2022).

Experiments:
Human MAO-A = molecular target: T1, Human MAO-A (Homo sapiens, UniProt P21397); experiment: hMAO-A inhibition assay; format: biochemical
T1 construct: purchased Sigma-Aldrich
T1 sequence (P21397 1-527): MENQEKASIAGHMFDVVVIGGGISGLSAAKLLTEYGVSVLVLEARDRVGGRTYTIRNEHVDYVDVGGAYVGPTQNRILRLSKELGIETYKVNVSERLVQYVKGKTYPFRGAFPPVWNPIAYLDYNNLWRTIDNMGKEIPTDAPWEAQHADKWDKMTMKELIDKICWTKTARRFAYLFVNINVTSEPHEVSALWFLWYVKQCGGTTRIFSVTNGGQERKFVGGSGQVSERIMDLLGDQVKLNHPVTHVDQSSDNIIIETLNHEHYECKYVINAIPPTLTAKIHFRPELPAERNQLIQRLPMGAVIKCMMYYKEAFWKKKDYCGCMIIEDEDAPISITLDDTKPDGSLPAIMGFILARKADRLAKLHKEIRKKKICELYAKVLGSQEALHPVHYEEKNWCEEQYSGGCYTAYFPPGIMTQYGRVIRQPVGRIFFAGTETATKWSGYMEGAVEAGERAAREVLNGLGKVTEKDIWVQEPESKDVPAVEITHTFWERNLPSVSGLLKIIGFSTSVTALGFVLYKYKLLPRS
Experimental: Further, the inhibitory activity of compounds against hMAO-A isoform was tested and calculated as a selectivity index [Selectivity index (SI): IC50 (hMAO-A)/IC50 (hMAO-B)].
The reagents and enzymes (Human MAO-B and Human MAO-A) applied in this experiment were purchased from Sigma-Aldrich. According to the manuals, all components (substrate solution and enzyme solution) are diluted and placed aside for use. The detailed process has been mentioned in our early work[34].

PAMPA-BBB assay = format: in vitro ADME
Excerpt: Good blood–brain barrier (BBB) permeability is the key to exerting drug efficacy in the treatment of central nervous system diseases. To evaluate whether the target compound could penetrate BBB, a parallel artificial membrane permeability assay (PAMPA) was used to predict[32]^,[33]. […] Therefore, due to its potential ability to cross the BBB, compound 17d was selected for subsequent assay.
PAMPA was used to predict the BBB permeability of the screened compound. The detailed process has been mentioned in our early work[32]^,[33].

MAO-B = molecular target: T2, MAO-B (Homo sapiens, UniProt P27338); experiment: MAO-B kinetic study (Michaelis-Menten, Lineweaver-Burk, p-tyramine substrate); format: biochemical
T2 construct: purchased Sigma-Aldrich
T2 sequence (P27338 1-520): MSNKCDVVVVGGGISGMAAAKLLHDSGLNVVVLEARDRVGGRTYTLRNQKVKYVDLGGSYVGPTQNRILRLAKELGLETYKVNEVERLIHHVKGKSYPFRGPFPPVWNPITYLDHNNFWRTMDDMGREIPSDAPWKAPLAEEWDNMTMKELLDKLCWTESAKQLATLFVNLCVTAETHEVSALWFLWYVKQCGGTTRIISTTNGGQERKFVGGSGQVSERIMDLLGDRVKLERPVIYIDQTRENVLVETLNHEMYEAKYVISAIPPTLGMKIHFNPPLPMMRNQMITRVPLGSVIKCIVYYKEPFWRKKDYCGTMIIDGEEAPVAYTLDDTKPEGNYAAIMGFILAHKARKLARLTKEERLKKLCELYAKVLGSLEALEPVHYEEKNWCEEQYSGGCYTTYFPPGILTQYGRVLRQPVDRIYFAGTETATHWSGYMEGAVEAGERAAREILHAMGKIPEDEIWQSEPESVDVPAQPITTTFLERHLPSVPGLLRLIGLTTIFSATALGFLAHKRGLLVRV
Experimental: Figure 5. Kinetic study and cytotoxicity assay of compound 17d. […] The Cytotoxicity effect of compound 17d on PC-12 cells (C).
To examine the interaction mode of 17d on MAO-B, kinetic studies were carried out. From the Lineweaver–Burk plots (Figure 5(B)), we observed that 17d operated by a non-competitive inhibition mechanism. […] Subsequently, the potential toxic effect of 17d was investigated on pheochromocytoma (PC-12) cells.
To further examine the interaction mode of compound 17d, the type of enzyme inhibition was determined by Michealis–Menten kinetic experiments. The catalytic rates of MAO‐B enzyme were measured at six different concentrations of substrate p‐tyramine (0.05, 0.1, 0.25, 0.5, 1.0, and 1.25 mM) in the absence and in the three different concentrations (33.3, 100, and 300 nM) of compound 17d. The corresponding dose‐response curves and the nonlinear/linear regression analysis were performed using GraphPad Prism version 6 software (Graphpad Software Inc., La Jolla, CA).

[1] = tested on: scopolamine-induced cognitive impairment mice model; experiment: Morris water maze test, scopolamine-induced memory impairment; format: in vivo, ICR mice
Excerpt: To further explore the in vivo anti-AD effect of compound 17d on the scopolamine-induced cognitive impairment mice model, the Morris Water Maze experiment was selected; data are shown in Figure 7 and Table 5.
Figure 7.
Adult female ICR mice (weight 20–25 g) were obtained from the Zhejiang Academy of Medical Sciences (Hangzhou, China). Scopolamine hydrobromide and Pargyline were purchased from Aladdin Reagents. Memantine was purchased from Energy Chemical. All experiments were approved by the Laboratory Animals Ethical Committee of the Zhejiang University of Technology (No. 20211210103). In this test, mice were prepared as clarified and clear injections, consisting of 20% (2-Hydroxypropyl)-β-cyclodextrin, 10% DMSO, and PBS. […] Mice were administered at a frequency of once a day over 15 d with a fixed dosing schedule. The body weight of mice was measured during the experiment.
After eliminating environmental stress, the behavioural test was performed over the next five days. The mice were trained to find the platform (10 cm diameter) in the circular light-avoidance pool (120 cm diameter and 60 cm height) filled with water (40 cm, depth), which was described in detail in our previous study. All mice received at least one training session daily in four quadrants for four consecutive days before the probe trial of finding the platform within 120 s. Recordings were made with SMART version 3.0 (Panlab, Spain) and processed by Graphpad Prism version 6 software (Graphpad Software Inc., La Jolla, CA, USA).

COc1ccc2c(=O)c(CNCCn3ccc(=O)c(O)c3C)coc2c1 [Compound 17d, 3-Hydroxy-1–(2-(((7-methoxy-4-oxo-4H-chromen-3-yl)methyl)amino)ethyl)-2-methylpyridin-4(1H)-one]
IC50 (Human MAO-A): 739 ± 21.9 nM | Papp (PAMPA-BBB assay; PAMPA-BBB, mean ± SEM of eight independent experiments, read-out: Pe ± SEM): 2.73 ± 0.07 ×10⁻⁶ cm/s | CNS (PAMPA-BBB assay; class from PAMPA-BBB Pe): ± (CNS (±) (BBB permeation uncertain); Pe (× 10^−6 cm s^−1) from 2.0 to 4.0) | inhibition mechanism (MAO-B; Lineweaver–Burk plots): non-competitive | Ki (MAO-B; p-tyramine substrate, GraphPad Prism, read-out: inhibition constant (Ki)): 74.7 nM | body weight of mice ([1]; 15 mg/kg once a day, after ten days): increased after ten days | scopolamine-induced cognitive impairment ([1]; 15 mg/kg, mice, Morris water maze): significantly ameliorated | Entries to target ([1]; 15 mg/kg, scopolamine 15 mg/kg, ICR mice, mean ± SEM, n = 15): 3.3 ± 0.3
